According to US10758534B2 (Vertex Pharmaceuticals Incorporated, priority 2014, dated 2020):

What follows are compounds tested against T1, F508del (Homo sapiens, UniProt P13569, DEL508-508) (assay: Protocol 1: membrane potential optical assay (FLIPR III, voltage sensing dye), identification of potentiator compounds). Conditions: Table 3, compounds of Table 1.
T1 construct: expressed in transfected cells
Format: cell-based
Method in brief: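 NIH 3T3 fibroblasts stably expressing F508del were cultured at 27° C for 24 hrs for temperature correction, then treated with compounds or DMSO and loaded with a voltage-sensing redistribution dye. Forskolin added with a Cl⁻ gradient activated the channel; membrane-potential fluorescence on FLIPR III reported increased gating.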

T1 sequence (P13569 with tags, fused parts or gaps DEL508-508): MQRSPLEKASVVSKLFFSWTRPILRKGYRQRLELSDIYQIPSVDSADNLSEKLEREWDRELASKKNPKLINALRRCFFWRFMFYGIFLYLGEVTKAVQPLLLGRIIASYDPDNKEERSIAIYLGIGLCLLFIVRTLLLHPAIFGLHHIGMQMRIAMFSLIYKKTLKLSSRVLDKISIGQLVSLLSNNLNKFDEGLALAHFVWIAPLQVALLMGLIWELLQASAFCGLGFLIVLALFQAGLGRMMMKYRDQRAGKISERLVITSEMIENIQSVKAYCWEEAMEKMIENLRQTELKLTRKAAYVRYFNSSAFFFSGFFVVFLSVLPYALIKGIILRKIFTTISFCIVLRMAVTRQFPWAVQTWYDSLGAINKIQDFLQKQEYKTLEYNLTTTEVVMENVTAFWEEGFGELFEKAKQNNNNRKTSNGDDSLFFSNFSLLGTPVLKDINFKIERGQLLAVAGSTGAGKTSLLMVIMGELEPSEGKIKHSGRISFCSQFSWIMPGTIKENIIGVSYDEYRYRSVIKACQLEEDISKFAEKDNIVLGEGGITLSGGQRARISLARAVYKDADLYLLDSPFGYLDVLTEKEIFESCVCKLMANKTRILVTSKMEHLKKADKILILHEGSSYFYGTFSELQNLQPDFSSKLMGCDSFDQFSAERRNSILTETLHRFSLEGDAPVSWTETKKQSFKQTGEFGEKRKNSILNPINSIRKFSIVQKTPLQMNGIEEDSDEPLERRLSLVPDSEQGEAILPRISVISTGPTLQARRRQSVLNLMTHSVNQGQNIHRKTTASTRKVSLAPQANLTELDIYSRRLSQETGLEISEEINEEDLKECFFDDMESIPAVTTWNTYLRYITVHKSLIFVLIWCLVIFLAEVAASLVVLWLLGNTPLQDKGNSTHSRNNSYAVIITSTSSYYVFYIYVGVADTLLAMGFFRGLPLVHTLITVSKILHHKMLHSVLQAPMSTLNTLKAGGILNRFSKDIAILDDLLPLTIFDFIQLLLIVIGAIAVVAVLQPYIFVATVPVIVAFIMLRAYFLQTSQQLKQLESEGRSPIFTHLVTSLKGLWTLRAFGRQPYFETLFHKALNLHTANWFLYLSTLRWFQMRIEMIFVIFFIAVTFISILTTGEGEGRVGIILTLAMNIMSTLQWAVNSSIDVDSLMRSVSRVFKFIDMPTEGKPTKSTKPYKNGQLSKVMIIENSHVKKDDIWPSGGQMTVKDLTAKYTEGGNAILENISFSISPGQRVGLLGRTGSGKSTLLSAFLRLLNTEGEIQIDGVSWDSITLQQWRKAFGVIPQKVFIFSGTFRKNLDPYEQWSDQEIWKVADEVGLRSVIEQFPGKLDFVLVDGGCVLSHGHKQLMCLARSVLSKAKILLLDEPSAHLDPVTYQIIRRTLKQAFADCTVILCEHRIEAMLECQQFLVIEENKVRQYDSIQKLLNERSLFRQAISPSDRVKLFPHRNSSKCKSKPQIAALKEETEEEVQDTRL

| SMILES | EC30 |
| --- | --- |
| COc1ccc(-c2ccc(C(=O)NS(=O)(=O)c3cccc(N)n3)c(Oc3c(C)cc(C)cc3C)n2)cc1O [Compound 1251, N-[(6-amino-2-pyridyl)sulfonyl]-6-(3-hydroxy-4-methoxy-phenyl)-2-(2,4,6-trimethylphenoxy)pyridine-3-carboxamide] | ++ (“++” means between 3 uM and 10 uM) |
| CCOc1cncc(-c2ccc(C(=O)NS(=O)(=O)c3cccc(N)n3)c(N3CC(C)CC3(C)C)n2)n1 (centres unmarked) [Compound 1252, N-[(6-amino-2-pyridyl)sulfonyl]-6-(6-ethoxypyrazin-2-yl)-2-(2,2,4-trimethylpyrrolidin-1-yl)pyridine-3-carboxamide] | +++ (“+++” means <3 uM) |
| Cc1cc(C)c(Oc2ncc(CCc3ccccc3)cc2C(=O)NS(=O)(=O)c2cccc(N)n2)c(C)c1 [Compound 1253, N-[(6-amino-2-pyridyl)sulfonyl]-5-phenethyl-2-(2,4,6-trimethylphenoxy)pyridine-3-carboxamide] | ++ (“++” means between 3 uM and 10 uM) |
| COc1cc(-c2cc(F)cc(OCC(C)C)c2)nc(N2[C@H](C)CC[C@@H]2C)c1C(=O)NS(=O)(=O)c1cccc(N)n1 [Compound 1254, N-[(6-amino-2-pyridyl)sulfonyl]-2-[(2S,5R)-2,5-dimethylpyrrolidin-1-yl]-6-(3-fluoro-5-isobutoxy-phenyl)-4-methoxy-pyridine-3-carboxamide] | +++ (“+++” means <3 uM) |
| CCOc1cc(F)cc(-c2ccc(C(=O)NS(=O)(=O)c3cccc(N)n3)c(Oc3c(C)cc(C)cc3C)n2)c1 [Compound 1255, N-[(6-amino-2-pyridyl)sulfonyl]-6-(3-ethoxy-5-fluoro-phenyl)-2-(2,4,6-trimethylphenoxy)pyridine-3-carboxamide] | +++ (“+++” means <3 uM) |
| CC(C)(C)c1cc(C(=O)NS(=O)(=O)c2cccc(N)c2)n(Cc2cccc3cc[nH]c23)n1 [Compound 1256, N-(3-aminophenyl)sulfonyl-5-tert-butyl-2-(1H-indol-7-ylmethyl)pyrazole-3-carboxamide] | ++ (“++” means between 3 uM and 10 uM) |
| CC(C)COc1cc(F)cc(-c2ccc(C(=O)NS(=O)(=O)c3ccn[nH]3)c(N3CCCC3Cc3ccccc3)n2)c1 (centres unmarked) [Compound 1257, 2-(2-benzylpyrrolidin-1-yl)-6-(3-fluoro-5-isobutoxy-phenyl)-N-(1H-pyrazol-5-ylsulfonyl)pyridine-3-carboxamide] | ++ (“++” means between 3 uM and 10 uM) |
| CC(C)COc1cc(F)cc(-c2ccc(C(=O)NS(=O)(=O)c3cccc(N)n3)c(N3CCCC3C(C)C)n2)c1 (centres unmarked) [Compound 1258, N-[(6-amino-2-pyridyl)sulfonyl]-6-(3-fluoro-5-isobutoxy-phenyl)-2-(2-isopropylpyrrolidin-1-yl)pyridine-3-carboxamide] | +++ (“+++” means <3 uM) |
| COc1cc(C)c(-c2ccc(C(=O)NS(=O)(=O)c3cccc(N)n3)c(N3CC(C)CC3(C)C)n2)cc1C (centres unmarked) [Compound 1259, N-[(6-amino-2-pyridyl)sulfonyl]-6-(4-methoxy-2,5-dimethyl-phenyl)-2-(2,2,4-trimethylpyrrolidin-1-yl)pyridine-3-carboxamide] | +++ (“+++” means <3 uM) |
| CC(C)COc1cc(F)cc(-c2ccc(C(=O)NS(=O)(=O)c3cccc(N)n3)c(N3CCC[C@H]3c3ccccc3)n2)c1 [Compound 1260, N-[(6-amino-2-pyridyl)sulfonyl]-6-(3-fluoro-5-isobutoxy-phenyl)-2-[(2S)-2-phenylpyrrolidin-1-yl]pyridine-3-carboxamide] | +++ (“+++” means <3 uM) |
| CC(C)(C)c1ccc(C(=O)NS(=O)(=O)c2cccc(N)n2)c(N2CCC[C@@H](c3ccccc3)C2)n1 [Compound 1261, N-[(6-amino-2-pyridyl)sulfonyl]-6-tert-butyl-2-[(3S)-3-phenyl-1-piperidyl]pyridine-3-carboxamide] | +++ (“+++” means <3 uM) |
| CC1CN(c2nc(-c3ccnc(C(C)C)c3)ccc2C(=O)NS(=O)(=O)c2cccc(N)n2)C(C)(C)C1 (centres unmarked) [Compound 1262, N-[(6-amino-2-pyridyl)sulfonyl]-6-(2-isopropyl-4-pyridyl)-2-(2,2,4-trimethylpyrrolidin-1-yl)pyridine-3-carboxamide] | ++ (“++” means between 3 uM and 10 uM) |
| CC(C)COc1cc(F)cc(-c2ccc(C(=O)NS(=O)(=O)c3cccc(N)n3)c(OC3CCCCCC3)n2)c1 [Compound 1263, N-[(6-amino-2-pyridyl)sulfonyl]-2-(cycloheptoxy)-6-(3-fluoro-5-isobutoxy-phenyl)pyridine-3-carboxamide] | +++ (“+++” means <3 uM) |
| CC(C)COc1cc(F)cc(-c2ccc(C(=O)NS(=O)(=O)c3cccc(N)n3)c(N3CCCC4(CCC4)C3)n2)c1 [Compound 1264, N-[(6-amino-2-pyridyl)sulfonyl]-2-(8-azaspiro[3.5]nonan-8-yl)-6-(3-fluoro-5-isobutoxy-phenyl)pyridine-3-carboxamide] | +++ (“+++” means <3 uM) |
| Cc1ccc(-c2nc(C(C)(C)C)ccc2C(=O)NS(=O)(=O)c2cccc(O)c2)cc1 [Compound 1265, 6-tert-butyl-N-(3-hydroxyphenyl)sulfonyl-2-(p-tolyl)pyridine-3-carboxamide] | ++ (“++” means between 3 uM and 10 uM) |
| CC(C)COc1cc(-c2ccc(C(=O)NS(=O)(=O)c3cccc(N)n3)c(N3CCC(C)CC3)n2)ccc1Cl [Compound 1266, N-[(6-amino-2-pyridyl)sulfonyl]-6-(4-chloro-3-isobutoxy-phenyl)-2-(4-methyl-1-piperidyl)pyridine-3-carboxamide] | +++ (“+++” means <3 uM) |
| CC(C)COc1cc(F)cc(-c2ccc(C(=O)NS(=O)(=O)c3cccc(N)n3)c(N3CCOCC3(C)C)n2)c1 [Compound 1267, N-[(6-amino-2-pyridyl)sulfonyl]-2-(3,3-dimethylmorpholin-4-yl)-6-(3-fluoro-5-isobutoxy-phenyl)pyridine-3-carboxamide] | +++ (“+++” means <3 uM) |
| CCOc1ccc(-c2ccc(C(=O)NS(=O)(=O)c3cccc(N)n3)c(Oc3c(C)cc(C)cc3C)n2)cc1OC [Compound 1268, N-[(6-amino-2-pyridyl)sulfonyl]-6-(4-ethoxy-3-methoxy-phenyl)-2-(2,4,6-trimethylphenoxy)pyridine-3-carboxamide] | +++ (“+++” means <3 uM) |
| Cc1cc(C(=O)NS(=O)(=O)c2cccc(N)n2)c(N2CC(C)CC2(C)C)nc1-c1cc(F)cc(OCC(C)C)c1 (centres unmarked) [Compound 1269, N-[(6-amino-2-pyridyl)sulfonyl]-6-(3-fluoro-5-isobutoxy-phenyl)-5-methyl-2-(2,2,4-trimethylpyrrolidin-1-yl)pyridine-3-carboxamide] | +++ (“+++” means <3 uM) |
| CC(C)COc1cc(F)cc(-c2ccc(C(=O)NS(=O)(=O)c3cccc(N)n3)c(N3CCC(C)(C)CC3)n2)c1 [Compound 1279, N-[(6-amino-2-pyridyl)sulfonyl]-2-(4,4-dimethyl-1-piperidyl)-6-(3-fluoro-5-isobutoxy-phenyl)pyridine-3-carboxamide] | +++ (“+++” means <3 uM) |

The next lines start with the values.

| EC30 | SMILES |
| --- | --- |
| +++ (“+++” means <3 uM) | C[C@@H]1CC[C@H](C)N1c1nc(-c2ccc(OCC(C)(C)C)nc2)ccc1C(=O)NS(=O)(=O)c1cccc(N)n1 [Compound 1270, N-[(6-amino-2-pyridyl)sulfonyl]-6-[6-(2,2-dimethylpropoxy)-3-pyridyl]-2-[(2S,5R)-2,5-dimethylpyrrolidin-1-yl]pyridine-3-carboxamide] |
| +++ (“+++” means <3 uM) | CC(C)Oc1ccc(-c2ccc(C(=O)NS(=O)(=O)c3cccc(N)n3)c(N3CCCC3C)n2)cn1 (centres unmarked) [Compound 1271, N-[(6-amino-2-pyridyl)sulfonyl]-6-(6-isopropoxy-3-pyridyl)-2-(2-methylpyrrolidin-1-yl)pyridine-3-carboxamide] |
| +++ (“+++” means <3 uM) | Cc1ccnc(-c2ccc(C(=O)NS(=O)(=O)c3cccc(N)n3)c(Oc3c(C)cc(C)cc3C)n2)c1 [Compound 1272, N-[(6-amino-2-pyridyl)sulfonyl]-6-(4-methyl-2-pyridyl)-2-(2,4,6-trimethylphenoxy)pyridine-3-carboxamide] |
| +++ (“+++” means <3 uM) | Cc1cc(C)c(CN2Cc3ccccc3C2(C)C(=O)NS(=O)(=O)c2cccc(N)c2)c(C)c1 (centres unmarked) [Compound 1273, N-(3-aminophenyl)sulfonyl-1-methyl-2-[(2,4,6-trimethylphenyl)methyl]isoindoline-1-carboxamide] |
| +++ (“+++” means <3 uM) | CC(C)Oc1ccc(-c2ccc(C(=O)NS(=O)(=O)c3cccc(N)n3)c(N3CCCC(C(F)(F)F)C3)n2)cn1 (centres unmarked) [Compound 1274, N-[(6-amino-2-pyridyl)sulfonyl]-6-(6-isopropoxy-3-pyridyl)-2-[3-(trifluoromethyl)-1-piperidyl]pyridine-3-carboxamide] |
| +++ (“+++” means <3 uM) | Cc1cc(C)c(Oc2nc(-c3cnc(N4CCCC4)nc3)ccc2C(=O)NS(=O)(=O)c2cccc(N)n2)c(C)c1 [Compound 1275, N-[(6-amino-2-pyridyl)sulfonyl]-6-(2-pyrrolidin-1-ylpyrimidin-5-yl)-2-(2,4,6-trimethylphenoxy)pyridine-3-carboxamide] |
| ++ (“++” means between 3 uM and 10 uM) | Cc1cc(C)c(Oc2nc(-c3ccc4c(cnn4C)c3)ccc2C(=O)NS(=O)(=O)c2cccc(N)n2)c(C)c1 [Compound 1276, N-[(6-amino-2-pyridyl)sulfonyl]-6-(1-methylindazol-5-yl)-2-(2,4,6-trimethylphenoxy)pyridine-3-carboxamide] |
| +++ (“+++” means <3 uM) | COc1cc(-c2ccc(C(=O)NS(=O)(=O)c3cccc(N)n3)c(Oc3c(C)cc(C)cc3C)n2)c(F)cn1 [Compound 1277, N-[(6-amino-2-pyridyl)sulfonyl]-6-(5-fluoro-2-methoxy-4-pyridyl)-2-(2,4,6-trimethylphenoxy)pyridine-3-carboxamide] |
| + (“+” means greater than 10 uM) | Cc1cc(C)c(Oc2nc(-c3ccccn3)ccc2C(=O)NS(=O)(=O)c2cccc(N)n2)c(C)c1 [Compound 1278, N-[(6-amino-2-pyridyl)sulfonyl]-6-(2-pyridyl)-2-(2,4,6-trimethylphenoxy)pyridine-3-carboxamide] |
